Laboratory results reported in article PMC3724763 (Journal of medicinal chemistry, 2013).

molecular target: T1, JHDM1A (Homo sapiens, UniProt Q9Y2K7); assay: FP competitive binding assay with tracer 3 and JHDM1A; conditions: 60 nM JHDM1A, 1 nM 3, Ni2+ buffer, 4 h
T1 sequence (Q9Y2K7 1-517): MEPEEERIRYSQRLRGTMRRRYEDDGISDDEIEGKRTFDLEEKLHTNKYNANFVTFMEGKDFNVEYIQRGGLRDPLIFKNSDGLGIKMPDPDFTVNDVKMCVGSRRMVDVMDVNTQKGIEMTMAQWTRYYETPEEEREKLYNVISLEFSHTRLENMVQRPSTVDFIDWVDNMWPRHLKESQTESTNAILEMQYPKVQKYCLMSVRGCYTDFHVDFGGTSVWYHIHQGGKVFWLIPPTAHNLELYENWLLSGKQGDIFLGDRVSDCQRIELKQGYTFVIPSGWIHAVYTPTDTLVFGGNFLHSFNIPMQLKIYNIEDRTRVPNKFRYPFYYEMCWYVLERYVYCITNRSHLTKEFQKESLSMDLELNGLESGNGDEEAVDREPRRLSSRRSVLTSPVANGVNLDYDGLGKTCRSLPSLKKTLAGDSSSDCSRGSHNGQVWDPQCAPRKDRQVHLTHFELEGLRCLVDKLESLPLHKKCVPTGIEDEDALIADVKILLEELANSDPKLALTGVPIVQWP

| displacement of tracer 3 from JHDM1A | SMILES |
| --- | --- |
| can displace 3 from JHDM1A | O=C(O)CNC(=O)C(=O)O [NOG, N-oxalyl glycine] |
| can displace 3 from JHDM1A | O=C(O)/C=C/C(=O)N(O)CCCCNCc1ccc(COC(=O)Nc2cccc3ccccc23)cc1 [Compound 2, methylstat acid] |

| SMILES | displacement of tracer 3 from JHDM1A |
| --- | --- |
| O=C(O)CCC(=O)C(=O)O [αKG, α-ketoglutarate] | can displace 3 from JHDM1A |
